Each structure is given as a SMILES string. Active and inactive are the calls of the source. Cut-off read from the data, not from the text of the source: actives have a measured IC50 and inactives only a lower limit.

In the assay the target is Envelope glycoprotein gp160 (Human immunodeficiency virus 1, UniProt Q6QLK5). Nature of the assay: cell-free HIV fusion peptide-binding blockers – biochemical, uHTS, fluorescence dequenching, […] (AID 1986).
Sequence of Envelope glycoprotein gp160 (Q6QLK5 whole entry, the tested form may be a part): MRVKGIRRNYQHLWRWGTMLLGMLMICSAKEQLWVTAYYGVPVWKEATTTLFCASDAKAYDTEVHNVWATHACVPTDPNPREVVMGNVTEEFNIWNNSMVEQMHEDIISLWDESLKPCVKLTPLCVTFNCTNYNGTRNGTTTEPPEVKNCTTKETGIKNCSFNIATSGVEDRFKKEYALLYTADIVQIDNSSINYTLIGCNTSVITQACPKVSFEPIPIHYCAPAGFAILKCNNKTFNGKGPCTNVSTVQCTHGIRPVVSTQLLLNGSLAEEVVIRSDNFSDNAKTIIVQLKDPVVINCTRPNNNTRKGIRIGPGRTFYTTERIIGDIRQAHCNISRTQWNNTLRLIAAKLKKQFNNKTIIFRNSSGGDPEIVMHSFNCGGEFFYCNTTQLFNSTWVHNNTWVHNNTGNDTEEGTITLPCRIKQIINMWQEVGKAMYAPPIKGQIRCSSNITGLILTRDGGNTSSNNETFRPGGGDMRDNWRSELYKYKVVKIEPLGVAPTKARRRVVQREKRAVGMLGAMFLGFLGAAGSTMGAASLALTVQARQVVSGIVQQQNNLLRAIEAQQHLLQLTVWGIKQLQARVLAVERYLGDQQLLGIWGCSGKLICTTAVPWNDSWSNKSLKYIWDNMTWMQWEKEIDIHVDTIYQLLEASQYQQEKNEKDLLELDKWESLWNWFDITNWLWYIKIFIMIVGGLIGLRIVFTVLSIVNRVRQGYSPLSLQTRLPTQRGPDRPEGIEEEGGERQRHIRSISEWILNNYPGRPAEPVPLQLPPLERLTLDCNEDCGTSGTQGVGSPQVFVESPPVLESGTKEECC
As a reminder, the IC50 is the concentration at which inhibition is half-maximal. In the case of `CCOc1cc(/C=C2/C(=N)N3C(=NC2=O)SN=C3S(C)(=O)=O)ccc1OS(=O)(=O)c1ccccc1`, the IC50 was 12.2 µM (active).
In the case of `O=C(O)c1cc(-c2ccc(/C=C3\NC(=O)N(c4ccc(Cl)cc4)C3=O)o2)ccc1Cl`, the IC50 is 22.6 µM (active).
Regarding `O=C1NC(=S)N(c2ccc(F)cc2)C(=O)/C1=C\c1ccoc1`, the IC50 was 5.78 µM (active).
Take `Cc1cc(N2C(=O)C(O)=C(C(=O)c3cc4ccccc4o3)C2c2cccc(Br)c2)no1` (stereo not given): the IC50 is 16.4 µM (active).
`O=c1cc(-c2ccccc2Cl)oc2c(NS(=O)(=O)c3cc(Cl)cc(Cl)c3O)ccc(O)c12`: the IC50 was 9.18 µM (active).

The values above are taken from ChEMBL document CHEMBL1201862, “PubChem BioAssay data set” (2004).
